System: Dspp gene
Experiment: Dspp mRNA level in human dental pulp cells treated with peptide (real-time PCR)
Type: cell-based
Conditions: hDPCs, peptide 10 μg/ml, 48 hours; ratio relative to Dspp mRNA level of untreated control; GAPDH internal control; triplicate
Procedure: Human dental pulp cells were separated from wisdom teeth of adults (aged 18-22) at the School of Dentistry, Seoul National University. In detail, all experiments were performed after the approval of the Institutional Review Board and the informed consent from patients. Wisdom teeth were fractured according to a method of Jung HS et al. (J Mol Histol.(2011)) to expose the dental pulps, and dental pulp tissues were separated with forceps. Each of the separated dental pulp tissues was cut into small pieces with a razor blade, put in a 60-mm dish, covered with a coverslip, and then cultured in a Dulbecco's modified Eagle's medium. It has been known that human dental pulp cells can differentiate into odontoblast, osteoblast, cementoblast, and periodontal ligament cells under various conditions (Tissue Eng Part A. 2014 April; 20 (7-8): 1342-51).
Total RNA was extracted from human dental pulp cells (hDPCs), and human bone marrow mesenchymal stem cells (hBMSCs) with TRIzol reagent. 2 μg of the total RNA, 1 μl of reverse transcriptase, and 0.5 μg of oligo (oligo; dT) were used to synthesize cDNA. The synthesized cDNA was used in a real-time polymerase chain reaction. The real-time polymerase chain reaction was performed on an ABI PRISM 7500 sequence detection system (Applied Biosystems) and an SYBR GREEN PCR Master Mix (Takara, Japan). The real-time polymerase chain reaction was performed under conditions of 94° C., 1 min; 95° C., 15 sec; 60° C., 34 sec for 40 cycles. Results were analyzed by a comparative cycle threshold (CT) method. And the used primers are as follows (Table 17).
The human dental pulp cells (hDPCs) cultured in Example 3 were treated with the peptides (concentration of 10 μg/ml) of each group synthesized in Example 1-1, and cultured for 48 hours. Then, mRNA levels of an odontoblast differentiation marker Dspp gene expressed in the human dental pulp cells were measured, and a ratio of the measured Dspp mRNA level relative to a Dspp mRNA level measured in a control group was calculated, respectively (Tables 18 to 33).
The expression level of the Dspp gene was measured through RT-PCR and real-time PCR analysis described in Example 1-4. In this regard, GAPDH gene was used as an internal control. The experiments were performed in triplicate, and then mean values and standard deviations thereof were taken as measured values. The base sequence of the primers is described in Table 17 above.

Substance | mRNA level of Dspp gene, Mean
104 (KYNQKRR; Novel peptide) [compound 104] | 1.878
15 (KYRQKKR; Novel peptide) [compound 15] | 6.764
76 (KYRNRRR; Novel peptide) [compound 76] | 2.394
27 (KYQQRRK; Novel peptide) [compound 27] | 2.213
97 (KYNQRKK; Novel peptide) [compound 97] | 1.515
114 (KYRKRKR; Novel peptide) [compound 114] | 1.849
37 (KYRRKKK; Novel peptide) [compound 37] | 3.303
79 (KYRNKKR; Novel peptide) [compound 79] | 2.403
127 (KYKKKKR; Novel peptide) [compound 127] | 1.888
55 (KYQKKKR; Novel peptide) [compound 55] | 2
121 (KYKKRKK; Novel peptide) [compound 121] | 2.024
100 (KYNQRRR; Novel peptide) [compound 100] | 1.599
95 (KYQNKKR; Novel peptide) [compound 95] | 1.939
54 (KYQKKRK; Novel peptide) [compound 54] | 1.638
31 (KYQQKKR; Novel peptide) [compound 31] | 2.432
105 (KYNNRKK; Novel peptide) [compound 105] | 1.664
120 (KYRNKRR; Novel peptide) [compound 120] | 1.878
117 (KYRKKKK; Novel peptide) [compound 117] | 1.929
89 (KYQNRKK; Novel peptide) [compound 89] | 1.635
59 (KYNKRRK; Novel peptide) [compound 59] | 2.463
60 (KYNKRRR; Novel peptide) [compound 60] | 2.089
77 (KYRNKKK; Novel peptide) [compound 77] | 1.939

Substance | mRNA level of Dspp gene, Mean
58 (KYNKRKR; Novel peptide) [compound 58] | 2.677
69 (KYNRKKK; Novel peptide) [compound 69] | 1.899
28 (KYQQRRR; Novel peptide) [compound 28] | 2.781
92 (KYQNRRR; Novel peptide) [compound 92] | 1.498
82 (KYKNRKR; Novel peptide) [compound 82] | 1.909
85 (KYKNKKK; Novel peptide) [compound 85] | 1.838
3 (KYQRRRK; Novel peptide) [compound 3] | 6.512
56 (KYQKKRR; Novel peptide) [compound 56] | 1.909
102 (KYNQKRK; Novel peptide) [compound 102] | 1.855
1 (KYQRRKK; Novel peptide) [compound 1] | 7.371
84 (KYKNRRR; Novel peptide) [compound 84] | 2.101
93 (KYQNKKK; Novel peptide) [compound 93] | 1.892
43 (KYKRRRK; Novel peptide) [compound 43] | 2.435
13 (KYRQKKK; Novel peptide) [compound 13] | 6.655
11 (KYRQRRK; Novel peptide) [compound 11] | 7.385
32 (KYQQKRR; Novel peptide) [compound 32] | 2.303
110 (KYNNKRK; Novel peptide) [compound 110] | 1.595
2 (KYQRRKR; Novel peptide) [compound 2] | 7.171
115 (KYRKRRK; Novel peptide) [compound 115] | 1.707
18 (KYKQRKR; Novel peptide) [compound 18] | 7.319
47 (KYKRKKR; Novel peptide) [compound 47] | 2.439
